The text below walks through data of patent US20260207758A1, “NA[…]-BASED CONJUGATE FOR […] INTO B CELL AND T CELL AND USES THEREOF” (priority 2022, published 2026).

Format in all cases: cell-based
Assay [1] has as its system B cells (primary CD19+ B cells). The experiment in a line: Binding of Cy5.5-labeled targeting peptide, confocal microscopy. As to conditions: 100 μM Cy5.5-labeled peptide, 1 hour. How it is done:
(§1) A B cell/T cell targeting peptide (BTBP, SEQ ID NO: 17) was labeled with Cy5.5, and B cells (primary CD19+ B cells, PCS-800-018, ATCC) and T cells (primary CD8+ cytotoxic T cells, PCS-800-017, ATCC) were treated with 100 μM of the peptide for 1 hour. Then, the cells were fixed with 4% neutral formalin solution and measured using a confocal scanning microscope (LSM980 with Airyscan2, Carl Zeiss). […] Therefore, it was confirmed that BTBP effectively targeted both the B cells and the T cells.

The subject of assay [2] is T cells (primary CD8+ cytotoxic T cells). The description is as above. To be noted: 100 μM Cy5.5-labeled peptide, 1 hour. As to the method:
as §1

In assay [3] the test system is B cells (primary CD19+ B cells). Description: Binding of Cy5.5-labeled targeting peptide, flow cytometry. To be noted: Cy5.5-labeled peptide. As to the method:
as §1
(§2) In addition, the cells were washed three times with DPBS containing 5% FBS, and cells bound with Cy5.5-labeled BTBP were analyzed using flow cytometry (FIG. 7). As a result, it could be confirmed that the peptide of SEQ ID NO: 17 bound to B cells and T cells.
In general terms: Flow cytometry measures light scatter and fluorescence of single cells or particles in a stream.

In assay [4] the test system is T cells (primary CD8+ cytotoxic T cells). The description is as above. To be noted: Cy5.5-labeled peptide. How it is done:
as §1, §2

In the case of HTHGAARVPDHR [BTBP], the “fluorescence intensity in cell membranes” value in assay [1] and in assay [2] was “significantly increased” in each case. The “binding to cells by flow cytometry” value in assay [3] and in assay [4] was “bound” in each case.
